Values joined by “and” are separate entries in the source; they are usually repeats but may differ in a detail not shown here. Identical values can stand only once.
System: panel of 484 cancer cell lines
Test: PRISM cancer cell line profiling, 5 days
Assay type: cell-based
Parameters: Viability: scale not given here; AUC: unit not given beside the values
Method: Cancer cell line profiling was performed using the Broad’s PRISM platform. Cell treatment and data analysis were performed as described in Yu et al[42]. Raw Luminex signal was converted to AUC values for each cell line as described. The resulting AUC profile for each compound was modeled against DepMap using the limma package in R[71]. Because hotspot mutation analysis was performed against DepMap, TP53 annotations in Fig. 6c,d are directly from DepMap.

[1] = CAL12T_LUNG, pert_dose 6.10E-04
[2] = CAL27_UPPER_AERODIGESTIVE_TRACT, pert_dose 6.10E-04
[3] = CAL29_URINARY_TRACT, pert_dose 6.10E-04

COc1ccc(C2=N[C@@H](c3ccc(Cl)cc3)[C@@H](c3ccc(Cl)cc3)N2C(=O)N2CCNC(=O)C2)c(OC(C)C)c1 [Nutlin-3A]
Viability (CAKI1_KIDNEY, pert_dose 6.10E-04): 1.281
AUC (CAL12T_LUNG): 1.284
MFI CAL12T_LUNG [1]: 11558 and 13284 and 9249.5 and 12951.5 and 13183
Viability [1]: 1.338
AUC (CAL27_UPPER_AERODIGESTIVE_TRACT): 1.085
MFI CAL27_UPPER_AERODIGESTIVE_TRACT [2]: 20059.5 and 19151.5 and 25415 and 19627.5 and 22725.5
Viability [2]: 1.031
AUC (CAL29_URINARY_TRACT): 1.177
MFI CAL29_URINARY_TRACT [3]: 9011 and 8957 and 10277.5 and 8231.5 and 10904
Viability [3]: 1.551
AUC (CAL51_BREAST): 1.0736
MFI CAL51_BREAST (CAL51_BREAST, pert_dose 6.10E-04): 12828 and 10989 and 10227 and 16366 and 8548.5
AUC (CAL54_KIDNEY): 1.148
Viability (CAL54_KIDNEY, pert_dose 6.10E-04): 1.061
AUC (CAL62_THYROID): 1.139
MFI CAL62_THYROID (CAL62_THYROID, pert_dose 6.10E-04): 19352 and 23281.5 and 23347 and 21690 and 18079
AUC (CAL78_BONE): 1.142
AUC (CAL120_BREAST): 1.092
MFI CAL120_BREAST (CAL120_BREAST, pert_dose 6.10E-04): 15064 and 12880 and 13041 and 15017 and 12012.5
AUC (CALU1_LUNG): 0.9872
AUC (CALU6_LUNG): 1.11
MFI CALU6_LUNG (CALU6_LUNG, pert_dose 6.10E-04): 19804 and 26726 and 21267 and 25781.5 and 28928.5
AUC (CAMA1_BREAST): 1.153
MFI CAMA1_BREAST (CAMA1_BREAST, pert_dose 6.10E-04): 1412 and 1959.5 and 1768 and 1670.5 and 1819.5
AUC (CAOV3_OVARY): 1.212
MFI CAOV3_OVARY (CAOV3_OVARY, pert_dose 6.10E-04): 4238 and 2774 and 4113 and 2696.5 and 4069
AUC (CAPAN2_PANCREAS): 1.279
AUC (CCFSTTG1_CENTRAL_NERVOUS_SYSTEM): 0.9997
MFI CCFSTTG1_CENTRAL_NERVOUS_SYSTEM (CCFSTTG1_CENTRAL_NERVOUS_SYSTEM, pert_dose 6.10E-04): 2625 and 1957.5 and 2163 and 2860 and 1678.5
AUC (CFPAC1_PANCREAS): 1.133
MFI CFPAC1_PANCREAS (CFPAC1_PANCREAS, pert_dose 6.10E-04): 12988 and 12890.5 and 8831 and 16982.5 and 13585.5
AUC (CHL1_SKIN): 1.101
MFI CHL1_SKIN (CHL1_SKIN, pert_dose 6.10E-04): 25277 and 22527.5 and 16250 and 20018.5 and 22530
AUC (CJM_SKIN): 1.181
MFI CJM_SKIN (CJM_SKIN, pert_dose 6.10E-04): 9757.5 and 5484 and 9139.5 and 7090.5 and 8423
AUC (CL34_LARGE_INTESTINE): 1.025
MFI CL34_LARGE_INTESTINE (CL34_LARGE_INTESTINE, pert_dose 6.10E-04): 3669 and 4269 and 5343.5 and 2751 and 2702
AUC (COLO668_LUNG): 1.1
AUC (COLO679_SKIN): 0.88
MFI COLO679_SKIN (COLO679_SKIN, pert_dose 6.10E-04): 6568.5 and 8262 and 8427 and 10413 and 7461
AUC (COLO680N_OESOPHAGUS): 1.159
MFI COLO680N_OESOPHAGUS (COLO680N_OESOPHAGUS, pert_dose 6.10E-04): 5933.5 and 4468 and 6131 and 5620 and 4657
AUC (COLO741_SKIN): 1.078
MFI COLO741_SKIN (COLO741_SKIN, pert_dose 6.10E-04): 3302 and 2497 and 3485 and 3755 and 2923
AUC (COLO783_SKIN): 1.125
MFI COLO783_SKIN (COLO783_SKIN, pert_dose 6.10E-04): 9292.5 and 11134.5 and 11660 and 10125 and 10684
AUC (COLO792_SKIN): 0.8537
MFI COLO792_SKIN (COLO792_SKIN, pert_dose 6.10E-04): 5216 and 3883.5 and 6906 and 3698 and 6181
AUC (COLO800_SKIN): 0.9456
MFI COLO800_SKIN (COLO800_SKIN, pert_dose 6.10E-04): 9562 and 9966.5 and 9539 and 8965 and 10824
AUC (CORL23_LUNG): 1.082
MFI CORL23_LUNG (CORL23_LUNG, pert_dose 6.10E-04): 18251 and 21912.5 and 23721 and 22738.5 and 19507.5
AUC (CORL105_LUNG): 0.9293
MFI CORL105_LUNG (CORL105_LUNG, pert_dose 6.10E-04): 3831.5 and 2259.5 and 3159 and 2363.5 and 2088.5
AUC (COV362_OVARY): 1.112
MFI COV362_OVARY (COV362_OVARY, pert_dose 6.10E-04): 17061 and 16771 and 18006 and 14276 and 17716.5
AUC (COV434_OVARY): 0.499
MFI COV434_OVARY (COV434_OVARY, pert_dose 6.10E-04): 2287 and 4116 and 4254.5 and 3247 and 3013
AUC (DANG_PANCREAS): 1.183
MFI DANG_PANCREAS (DANG_PANCREAS, pert_dose 6.10E-04): 3936.5 and 2389 and 3329.5 and 4098 and 2374
AUC (DAOY_CENTRAL_NERVOUS_SYSTEM): 1.063
MFI DAOY_CENTRAL_NERVOUS_SYSTEM (DAOY_CENTRAL_NERVOUS_SYSTEM, pert_dose 6.10E-04): 3341 and 3770 and 5391 and 3660 and 5169
AUC (DBTRG05MG_CENTRAL_NERVOUS_SYSTEM): 0.8565
MFI DBTRG05MG_CENTRAL_NERVOUS_SYSTEM (DBTRG05MG_CENTRAL_NERVOUS_SYSTEM, pert_dose 6.10E-04): 9502 and 12025.5 and 11037.5 and 11248 and 13043
AUC (DETROIT562_UPPER_AERODIGESTIVE_TRACT): 1.165
MFI DETROIT562_UPPER_AERODIGESTIVE_TRACT (DETROIT562_UPPER_AERODIGESTIVE_TRACT, pert_dose 6.10E-04): 11765 and 10497.5 and 16246.5 and 13989 and 13619
AUC (DKMG_CENTRAL_NERVOUS_SYSTEM): 0.8274
AUC (DMS273_LUNG): 1.073
MFI DMS273_LUNG (DMS273_LUNG, pert_dose 6.10E-04): 11114.5 and 10196.5 and 9771 and 10022 and 13797
AUC (DU145_PROSTATE): 1.079
MFI DU145_PROSTATE (DU145_PROSTATE, pert_dose 6.10E-04): 21126.5 and 23687 and 17071 and 16938.5 and 18848
AUC (DV90_LUNG): 0.8353
MFI DV90_LUNG (DV90_LUNG, pert_dose 6.10E-04): 7893 and 6981 and 9620.5 and 7167 and 6096.5
∆ (AUC, TP53 mutation vs WT; decreased sensitivity) (DepMap TP53 mutation annotation): 0.0919
AUC (EBC1_LUNG): 1.0742
MFI EBC1_LUNG (EBC1_LUNG, pert_dose 6.10E-04): 12931 and 11768 and 13134.5 and 11101.5 and 10612
AUC (ECGI10_OESOPHAGUS): 1.177
AUC (EFM192A_BREAST): 1.203
AUC (EFO21_OVARY): 1.106
MFI EFO21_OVARY (EFO21_OVARY, pert_dose 6.10E-04): 6907 and 7302 and 6854 and 7260 and 4429
AUC (EFO27_OVARY): 1.1574
MFI EFO27_OVARY (EFO27_OVARY, pert_dose 6.10E-04): 9100.5 and 10537 and 7873 and 14276 and 9706
AUC (EN_ENDOMETRIUM): 1.075
AUC (ES2_OVARY): 1.089
MFI ES2_OVARY (ES2_OVARY, pert_dose 6.10E-04): 18459 and 23432 and 12997.5 and 16216 and 13403
AUC (ESS1_ENDOMETRIUM): 1.129
MFI ESS1_ENDOMETRIUM (ESS1_ENDOMETRIUM, pert_dose 6.10E-04): 2916 and 2399 and 2841.5 and 2277 and 1505
AUC (EWS502_BONE): 1.109
MFI EWS502_BONE (EWS502_BONE, pert_dose 6.10E-04): 3099 and 3510.5 and 2209 and 3124 and 3278.5
AUC (FADU_UPPER_AERODIGESTIVE_TRACT): 1.169
MFI FADU_UPPER_AERODIGESTIVE_TRACT (FADU_UPPER_AERODIGESTIVE_TRACT, pert_dose 6.10E-04): 3959.5 and 4203 and 5203 and 4740.5 and 7313
AUC (FTC133_THYROID): 1.156
